# In patent US8592426B2, “Aryl-benzocycloalkyl amide derivatives” (Hoffmann—La Roche Inc., priority 2011, dated 2013):
# pIC50, pKi: −log10 of the molar value.
# Key:
# Bradykinin-1 receptor [1] = target: T1, Bradykinin-1 receptor (Homo sapiens (Human), UniProt P46663); assay: Calcium mobilization assay (FLIPR, Fluo-4) in GeneBLAzer Bradykinin (B1)-NFAT-bla CHO-K1 cells; assay type: cell-based; settings: antagonist activity; CHO-K1 cells stably overexpressing the human bradykinin 1 receptor; read-out: Ca mobilization Assay IC50
# Procedure: Calcium Mobilization Assay
# GeneBLAzer® Bradykinin (B1)-NFAT-bla CHO-K1 cells (from Invitrogen) stably overexpressing the human bradykinin 1 receptor were cultured in DMEM (high glucose) supplemented with 10% dialysed FBS, 1% NEAA (non essential amino acids) 1% penicillin/streptomycin, 1% G418 and 0.1 mg/ml zeocin.
# For the assay cells were grown overnight in 384-well black clear flat bottom polystyrene plates (Costar) at 37° C. at 5% CO2. After washing with DMEM, 20 mM Hepes, 2.5 mM probenecid, 0.1% BSA (DMEM assay buffer) cells were loaded with 4 μM Fluo-4 in the same DMEM assay buffer for 2 hours at 30° C. Excess dye was removed and cells were washed with DMEM assay buffer. 384-well compound plates were prepared with DMEM assay buffer/0.5% DMSO with or without various concentrations of test compounds. Usually compounds were tested for agonist and antagonist activity.
# Test compounds were added to the assay plate and agonist activity was monitored as fluorescence for 80 seconds with a FLIPR (488 nm excitation; 510-570 nm emission; Molecular Devices). After 20-30 min. of incubation at 30° C., 20 nM […] (R&D; Roche) was added and fluorescence was monitored again for 80 seconds. Increases in intracellular calcium are reported as maximum fluorescence after agonist exposure minus basal fluorescence before exposure.
# Bradykinin-1 receptor [2] = target: T1, Bradykinin-1 receptor; assay: Receptor binding assay (B1R Binding Assay), [3H]-Kallidin (Des Arg10, Leu9) displacement; settings: membranes from CHO-K1 cells overexpressing Bradykinin-1 receptor; 6 nM radioligand
# Procedure: Binding assays were done with membranes from CHO-K1 cells overexpressing Bradykinin-1 receptor.
# To determine non-specific binding 10 μM Lys-(Des-Arg^9)-Bradykinin (Bachem) was added. Membranes were harvested through GF/B (glass fiber filter; PerkinElmer) plates, equilibrated with 0.5% polyethylenimine, air dried at 50° C. for 2 h. Radioactivity was determined by counting in a topcounter (NXT Packard).
# T1 sequence (P46663 whole entry): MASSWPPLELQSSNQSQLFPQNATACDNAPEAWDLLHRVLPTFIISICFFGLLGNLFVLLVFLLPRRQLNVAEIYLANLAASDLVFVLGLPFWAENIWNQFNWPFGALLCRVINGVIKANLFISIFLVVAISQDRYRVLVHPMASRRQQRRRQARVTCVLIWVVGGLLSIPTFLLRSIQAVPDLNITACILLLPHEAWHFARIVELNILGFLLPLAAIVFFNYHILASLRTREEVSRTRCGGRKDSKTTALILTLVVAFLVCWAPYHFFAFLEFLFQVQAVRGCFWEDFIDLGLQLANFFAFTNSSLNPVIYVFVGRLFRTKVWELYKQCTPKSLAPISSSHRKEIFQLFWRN
pIC50 (Bradykinin-1 receptor [1]),pKi (Bradykinin-1 receptor [2]),Structure (SMILES)
9.22,7.82,"Cc1nc(-c2c(F)cc(Cl)cc2-c2cc(F)c3c(c2)CCC3NC(=O)C2(NC(=O)c3ccnnc3)CC2)no1 (racemic) [Example 34, Pyridazine-4-carboxylic acid(1-{(rac)-5-[5-chloro-3-fluoro-2-(5-methyl-[1,2,4]oxadiazol-3-yl)-phenyl]-7-fluoro-indan-1-ylcarbamoyl}-cyclopropyl)-amide]"
9.30,7.77,"COc1cc(C(=O)NC2(C(=O)NC3CCc4cc(-c5cc(Cl)cc(F)c5-c5noc(C)n5)cc(F)c43)CC2)on1 (racemic) [Example 35, 3-Methoxy-isoxazole-5-carboxylic acid(1-{(rac)-5-[5-chloro-3-fluoro-2-(5-methyl-[1,2,4]oxadiazol-3-yl)-phenyl]-7-fluoro-indan-1-ylcarbamoyl}-cyclopropyl)-amide]"
8.44,6.44,"Cc1nc(-c2c(F)cc(Cl)cc2-c2cnc3c(c2)CCC3NC(=O)C2(NC(=O)OC(C)(C)C)CC2)no1 (racemic) [Example 36, (1-{(rac)-3-[5-Chloro-3-fluoro-2-(5-methyl-[1,2,4]oxadiazol-3-yl)-phenyl]-6,7-dihydro-5H-[1]pyrindin-7-ylcarbamoyl}-cyclopropyl)-carbamic acid tert-butyl ester]"
6.52,6.23,"Cc1nc(-c2c(F)cc(Cl)cc2-c2cnc3c(c2)CCC3NC(=O)C2(N)CC2)no1 (racemic) [Example 37, 1-Amino-cyclopropanecarboxylic acid{(rac)-3-[5-chloro-3-fluoro-2-(5-methyl-[1,2,4]oxadiazol-3-yl)-phenyl]-6,7-dihydro-5H-[1]pyrindin-7-yl}-amide]"
9.70,8.52,"COc1cc(C(=O)NC2(C(=O)NC3CCc4cc(-c5cc(Cl)cc(F)c5-c5noc(C)n5)cnc43)CC2)on1 (racemic) [Example 38, 3-Methoxy-isoxazole-5-carboxylic acid(1-{(rac)-3-[5-chloro-3-fluoro-2-(5-methyl-[1,2,4]oxadiazol-3-yl)-phenyl]-6,7-dihydro-5H-[1]pyrindin-7-ylcarbamoyl}-cyclopropyl)-amide]"
9.22,8.12,"Cc1nc(-c2c(F)cc(Cl)cc2-c2cnc3c(c2)CCC3NC(=O)C2(NC(=O)c3ccnnc3)CC2)no1 (racemic) [Example 39, Pyridazine-4-carboxylic acid(1-{(rac) 3-[5-chloro-3-fluoro-2-(5-methyl-[1,2,4]oxadiazol-3-yl)-phenyl]-6,7-dihydro-5H-[1]pyrindin-7-ylcarbamoyl}-cyclopropyl)-amide]"
9.70,8.40,"COc1ncc(C(=O)NC2(C(=O)NC3CCc4cc(-c5cc(Cl)cc(F)c5-c5noc(C)n5)cnc43)CC2)cn1 (racemic) [Example 42, 2-Methoxy-pyrimidine-5-carboxylic acid(1-{(rac)-3-[5-chloro-3-fluoro-2-(5-methyl-[1,2,4]oxadiazol-3-yl)-phenyl]-6,7-dihydro-5H-[1]pyrindin-7-ylcarbamoyl}-cyclopropyl)-amide]"
9.52,8.20,"Cc1nc(-c2c(F)cc(Cl)cc2-c2cnc3c(c2)CCC3NC(=O)C2(NC(=O)c3ccno3)CC2)no1 (racemic) [Example 43, Isoxazole-5-carboxylic acid(1-{(rac)-3-[5-chloro-3-fluoro-2-(5-methyl-[1,2,4]oxadiazol-3-yl)-phenyl]-6,7-dihydro-5H-[1]pyrindin-7-ylcarbamoyl}-cyclopropyl)-amide]"
6.15,5.82,"Cc1nc(-c2c(F)cc(Cl)cc2-c2ccc3c(c2)OCC3NC(=O)C2(N)CC2)no1 (racemic) [Example 45, 1-Amino-cyclopropanecarboxylic acid{(rac)-6-[5-chloro-3-fluoro-2-(5-methyl-[1,2,4]oxadiazol-3-yl)-phenyl]-2,3-dihydro-benzofuran-3-yl}-amide]"
8.33,7.72,"Cc1nc(-c2c(F)cc(Cl)cc2-c2ccc3c(c2)OCC3NC(=O)C2(NC(=O)c3ccnnc3)CC2)no1 (racemic) [Example 46, Pyridazine-4-carboxylic acid(1-{(rac)-6-[5-chloro-3-fluoro-2-(5-methyl-[1,2,4]oxadiazol-3-yl)-phenyl]-2,3-dihydro-benzofuran-3-ylcarbamoyl}-cyclopropyl)-amide]"
9.70,8.27,"COc1ncc(C(=O)NC2(C(=O)NC3COc4cc(-c5cc(Cl)cc(F)c5-c5noc(C)n5)ccc43)CC2)cn1 (racemic) [Example 47, 2-Methoxy-pyrimidine-5-carboxylic acid(1-{(rac)-6-[5-chloro-3-fluoro-2-(5-methyl-[1,2,4]oxadiazol-3-yl)-phenyl]-2,3-dihydro-benzofuran-3-ylcarbamoyl}-cyclopropyl)-amide]"
8.40,7.62,"COc1cc(C(=O)NC2(C(=O)NC3COc4cc(-c5cc(Cl)cc(F)c5-c5noc(C)n5)ccc43)CC2)on1 (racemic) [Example 48, 3-Methoxy-isoxazole-5-carboxylic acid(1-{(rac)-6-[5-chloro-3-fluoro-2-(5-methyl-[1,2,4]oxadiazol-3-yl)-phenyl]-2,3-dihydro-benzofuran-3-ylcarbamoyl}-cyclopropyl)-amide]"
8.24,7.20,"Cn1nnc(-c2c(F)cc(Cl)cc2-c2cnc3c(c2)CCC3NC(=O)C2(NC(=O)OC(C)(C)C)CC2)n1 (racemic) [Example 54, (1-{(rac)-3-[5-Chloro-3-fluoro-2-(2-methyl-2H-tetrazol-5-yl)-phenyl]-6,7-dihydro-5H-[1]pyrindin-7-ylcarbamoyl}-cyclopropyl)-carbamic acid tert-butyl ester]"
7.21,6.68,"Cn1nnc(-c2c(F)cc(Cl)cc2-c2cnc3c(c2)CCC3NC(=O)C2(N)CC2)n1 (racemic) [Example 55, 1-Amino-cyclopropanecarboxylic acid{(rac)-3-[5-chloro-3-fluoro-2-(2-methyl-2H-tetrazol-5-yl)-phenyl]-6,7-dihydro-5H-[1]pyrindin-7-yl}-amide]"
9.70,8.35,"COc1ncc(C(=O)NC2(C(=O)NC3CCc4cc(-c5cc(Cl)cc(F)c5-c5nnn(C)n5)cnc43)CC2)cn1 (racemic) [Example 56, 2-Methoxy-pyrimidine-5-carboxylic acid(1-{(rac)-3-[5-chloro-3-fluoro-2-(2-methyl-2H-tetrazol-5-yl)-phenyl]-6,7-dihydro-5H-[1]pyrindin-7-ylcarbamoyl}-cyclopropyl)-amide]"
9.40,8.24,"Cn1nnc(-c2c(F)cc(Cl)cc2-c2cnc3c(c2)CCC3NC(=O)C2(NC(=O)c3ccno3)CC2)n1 (racemic) [Example 57, Isoxazole-5-carboxylic acid(1-{(rac)-3-[5-chloro-3-fluoro-2-(2-methyl-2H-tetrazol-5-yl)-phenyl]-6,7-dihydro-5H-[1]pyrindin-7-ylcarbamoyl}-cyclopropyl)-amide]"
9.40,8.20,"Cc1cc(C(=O)NC2(C(=O)NC3CCc4cc(-c5cc(Cl)cc(F)c5-c5nnn(C)n5)cnc43)CC2)on1 (racemic) [Example 58, 3-Methyl-isoxazole-5-carboxylic acid(1-{(rac)-3-[5-chloro-3-fluoro-2-(2-methyl-2H-tetrazol-5-yl)-phenyl]-6,7-dihydro-5H-[1]pyrindin-7-ylcarbamoyl}-cyclopropyl)-amide]"
9.52,8.46,"COc1cc(C(=O)NC2(C(=O)NC3CCc4cc(-c5cc(Cl)cc(F)c5-c5nnn(C)n5)cnc43)CC2)on1 (racemic) [Example 59, 3-Methoxy-isoxazole-5-carboxylic acid(1-{(rac)-3-[5-chloro-3-fluoro-2-(2-methyl-2H-tetrazol-5-yl)-phenyl]-6,7-dihydro-5H-[1]pyrindin-7-ylcarbamoyl}-cyclopropyl)-amide]"
7.76,6.58,"Cn1nnc(-c2c(F)cc(Cl)cc2-c2ccc3c(c2)SCC3NC(=O)C2(N)CC2)n1 (racemic) [Example 61, 1-Amino-cyclopropanecarboxylic acid{(rac)-6-[5-chloro-3-fluoro-2-(2-methyl-2H-tetrazol-5-yl)-phenyl]-2,3-dihydro-benzo[b]thiophen-3-yl}-amide]"
8.32,7.91,"Cc1nnc(C(=O)NC2(C(=O)NC3CSc4cc(-c5cc(Cl)cc(F)c5-c5nnn(C)n5)ccc43)CC2)o1 (racemic) [Example 62, 5-Methyl-[1,3,4]oxadiazole-2-carboxylic acid(1-{(rac)-6-[5-chloro-3-fluoro-2-(2-methyl-2H-tetrazol-5-yl)-phenyl]-2,3-dihydro-benzo[b]thiophen-3-ylcarbamoyl}-cyclopropyl)-amide]"
9.70,8.32,"Cn1nnc(-c2c(F)cc(Cl)cc2-c2ccc3c(c2)SCC3NC(=O)C2(NC(=O)c3cncnc3)CC2)n1 (racemic) [Example 63, Pyrimidine-5-carboxylic acid(1-{(rac)-6-[5-chloro-3-fluoro-2-(2-methyl-2H-tetrazol-5-yl)-phenyl]-2,3-dihydro-benzo[b]thiophen-3-ylcarbamoyl}-cyclopropyl)-amide]"
